{
  "source": "patent US4889860A",
  "about": "(Nova Pharmaceutical Corporation, priority 1987, dated 1989)",
  "key": {"[1]": {"system": "bombesin-induced scratching", "test": "bombesin-induced scratching test", "type": "in vivo", "conditions": "sc; subcutaneous; read-out: mean A50, bombesin-induced scratching", "description": "(Cowan A. Trendsin Pharmacology Science, 7:69-72, 1986) With this test the intracerebroventricular administration of bombesin produces a characteristic scratching response."}, "[2]": {"test": "deaths of rats during tail flick experiment at high doses", "conditions": "S.C.", "description": "(§1) A 15 sec. cut-off latency was used to prevent tissue damage."}, "[3]": {"molecular_target": "delta-type opioid receptor (Rattus norvegicus, UniProt P33533)", "sequence (P33533 whole entry)": "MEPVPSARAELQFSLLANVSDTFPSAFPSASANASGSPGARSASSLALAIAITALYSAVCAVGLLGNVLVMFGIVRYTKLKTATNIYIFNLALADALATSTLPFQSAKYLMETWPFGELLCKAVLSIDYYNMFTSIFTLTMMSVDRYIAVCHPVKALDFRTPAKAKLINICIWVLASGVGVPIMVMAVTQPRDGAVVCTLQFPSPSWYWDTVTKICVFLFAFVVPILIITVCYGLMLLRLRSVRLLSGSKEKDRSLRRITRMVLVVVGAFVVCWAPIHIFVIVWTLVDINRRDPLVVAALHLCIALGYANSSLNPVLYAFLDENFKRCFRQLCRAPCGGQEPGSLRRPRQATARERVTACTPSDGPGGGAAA", "test": "inhibition of specific [^3 H] DADLE binding to rat forebrain membranes", "method": "(§2) The interaction of some of the novel compounds with mu and delta-type opioid receptors present in brain membranes was examined in vitro. […] DAGO (mu-type receptor) or [^3 H] DADLE (delta-type receptor) was determined using rat forebrain membranes. Computer assisted analysis (EBDA) was used to determine apparent Ki values for the various compounds.\n(§3) Values represent the MEAN±S.E.M. of the Ki(nM) for each compound to inhibit specific binding of the indicated ligand to rat brain membranes. The values are from two-five separate experiments and were calculated according to the method of Cheng and Prusoff [Biochem. Pharmacol. 1973, 22, 3099-3108] together with the EBDA Program. Numbers in parentheses are the mean Hill coefficients for each compound to inhibit ligand binding.\nas §3, with “two.div.seven” for “two-five”, “Prusoff” for “Prusoff [Biochem. Pharmacol. 1973, 22, 3099-3108]”, “program.” for “Program.”, “binding. N.D.=not determined” for “binding.”\n(§4) The interaction of some of the novel compounds with mu, delta and kappa - type opioid receptors present in brain membranes was examined in vitro. […] DAGO (mu-type receptor), or [^3 H] DADLE (Delta-type receptor) using rat forebrain membranes and [^3 H] EKC (kappa-type receptor) using guiniea pig cerebellum membrane was determined. Computer assisted analysis (EBDA) was used to determine apparent Ki values for the various compounds.\n(§5) The values represent the MEAN±S.E.M. of the Ki(nM) for each compound to inhibit specific binding of the indicated ligand. Each value represents the mean of three individual experiments performed on separate occasions."}, "mu-type opioid receptor": {"molecular_target": "T1, mu-type opioid receptor (Rattus norvegicus, UniProt P33535)", "T1 construct": "using rat forebrain membranes; from tissue; host or cells: rat forebrain membranes", "T1 sequence (P33535 whole entry)": "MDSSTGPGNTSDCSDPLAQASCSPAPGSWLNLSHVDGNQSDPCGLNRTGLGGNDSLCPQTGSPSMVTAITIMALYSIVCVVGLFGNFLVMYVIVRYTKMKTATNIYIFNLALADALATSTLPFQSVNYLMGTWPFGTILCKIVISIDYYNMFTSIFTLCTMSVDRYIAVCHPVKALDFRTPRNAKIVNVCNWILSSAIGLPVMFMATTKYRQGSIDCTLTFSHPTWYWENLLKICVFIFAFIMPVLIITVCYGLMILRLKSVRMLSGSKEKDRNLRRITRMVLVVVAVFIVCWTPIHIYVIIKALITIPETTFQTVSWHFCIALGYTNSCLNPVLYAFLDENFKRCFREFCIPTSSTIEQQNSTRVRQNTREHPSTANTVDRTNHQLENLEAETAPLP", "test": "inhibition of specific [^3 H] DAGO binding to rat forebrain membranes", "method": "as §2, §3\nas §3, with “two.div.seven” for “two-five”, “Prusoff” for “Prusoff [Biochem. Pharmacol. 1973, 22, 3099-3108]”, “program.” for “Program.”, “binding. N.D.=not determined” for “binding.”\nas §4, §5"}, "tail flick response": {"system": "tail flick response", "test": "radiant heat tail flick analgesia in rats", "type": "in vivo, rat", "conditions": "for ED50: Rattus norvegicus; for dose producing approximately equal analgesia: tail flick, through 3.5 hr", "method": "The analgesic properties of the compounds prepared in accordance with Examples III and IV were evaluated in rats using the radiant heat and tail flick paradigm. […] Flick latencies in FIGS. 11-13 were determined at 30 minute intervals through 3.5 h and the data was expressed as a percentage of the maximum possible effect (% MPE). A 15 sec. cut-off latency was used to minimize tissue damage. The values shown are the mean values for 6 rats.\nas §1\nThe analgesic properties of compounds XXII and XXIII were evaluated in rats using the writhing assay and tail flick paradigm. […] The writhing assay which uses a chemical stimulus to produce pain, is believed to be more sensitive to kappa agonist activity than other measures of analgesia which uses a heat stimulus (Dykstra, L.A. Behavioral Pharmacology: The Current Status, N.Y.: Allan R. Liss. Inc. 1985)."}, "[4]": {"molecular_target": "T2, kappa-type opioid receptor (Cavia porcellus, UniProt P41144)", "T2 construct": "using guiniea pig cerebellum membrane; from tissue; host or cells: guinea pig cerebellum membranes", "T2 sequence (P41144 whole entry)": "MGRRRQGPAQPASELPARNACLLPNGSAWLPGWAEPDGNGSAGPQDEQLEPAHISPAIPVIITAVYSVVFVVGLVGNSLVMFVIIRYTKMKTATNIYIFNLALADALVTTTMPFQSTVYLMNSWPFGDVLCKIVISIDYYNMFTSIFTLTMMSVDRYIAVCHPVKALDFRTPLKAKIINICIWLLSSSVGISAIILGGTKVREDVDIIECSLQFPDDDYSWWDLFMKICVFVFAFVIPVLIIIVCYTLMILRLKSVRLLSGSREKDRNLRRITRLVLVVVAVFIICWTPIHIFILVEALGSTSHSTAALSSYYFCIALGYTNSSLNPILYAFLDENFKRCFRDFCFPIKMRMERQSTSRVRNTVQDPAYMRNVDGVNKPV", "test": "inhibition of specific [^3 H] EKC binding to guinea pig cerebellum membrane", "conditions": "than other compounds or naltrexone", "method": "as §4, §5"}, "writhing response": {"system": "writhing response", "test": "animal or person", "type": "in vivo, mouse"}, "[5]": {"test": "conditioned taste aversion in rats", "type": "in vivo, rat", "conditions": "I.P., day 10", "method": "The ability of a compound to inhibit feeding may not be related to its anorectic properties, but rather to the ability of that compound to produce a conditioned taste aversion. This possibility was tested in the following experiment. Animals were adapted to water deprivation by restricting their access to water to a single 30 min presentation occurring at the same time every day. Baseline water intakes were determined for 7 days until intakes had stabilized, and animals were assigned to treatment groups based on their intakes on the final baseline day. On the following day (day 8), all rats received a bottle of condensed milk (diluted 2:1 water:milk) in place of the water, and intakes were recorded for 30 min. Fifteen minutes after the milk was removed, rats were administered an I.P. injection of vehicles, LiCl (299.6 μmol/kg) or the compound of Example XII (1.15, 2.31, 11.55 and 23.09 μmol/kg). The compound of Example XII was dissolved in 0.3% acetic acid in a volume of 4 ml/kg. LiCl was dissolved in saline, and serves as a positive control, since it is a compound that reliably produces a strong conditioned taste aversion. This procedure was repeated on day 9. On day 10, all rats were given a two-bottle choice of water or the milk:water solution, and intakes were recorded for 30 min. Data for each experiment were analyzed by one-way ANOVA, and post-hoc comparisons were performed using Dunnett's test.\nThe effects of the compound of Example XII in producing a conditioned taste aversion are illustrated in FIGS. 28 and 29. In FIGS. 28 and 29 the data represent the mean ±SEM for each group. **=p<0.01 (Dunnett's test). Abbreviations: SAL, saline; AA, 0.3% acetic acid in distilled water; LiCl, lithium chloride. Doses of the compound of Example XII for each group are expressed in μmole/kg. The number of animals per group: SAL, 4: AA, LiCl and each dose of Example XII, 5. FIG. 28: Total milk intake in ml on day 10. FIG. 29: Preference ratio on day 10."}, "[6]": {"conditions": "1 and 2 mg/kg; cited from earlier work"}, "[7]": {"conditions": "Simone et al.; cited from earlier work"}, "[8]": {"conditions": "read-out: Ki, inhibition of specific [^3 H] DADLE binding, Tables 1 and 2, rat brain membranes, MEAN±S.E.M."}, "[9]": {"conditions": "Ki, inhibition of specific [^3 H] DAGO binding, Tables 1 and 2, rat brain membranes, MEAN±S.E.M."}, "[10]": {"conditions": "sc, 0.5 h, S.C., 30 min, read-out: ED50, tail flick analgesia"}},
  "note": "Like-named read-outs stand apart in the source and are kept apart here.",
  "data": [
    {"smiles": "Oc1ccc2c3c1O[C@H]1C(=NOCCCc4ccccc4)CC[C@@]4(O)[C@@H](C2)N(CC2CC2)CC[C@]314", "note": "[6[3-phenylpropyl] oximino naltrexone]", "values": [
      {"measurement": "ED50", "setting": "[1]", "value": 0.08, "unit": "mg/kg"}
    ]},
    {"smiles": "CN1CC[C@]23c4c5ccc(O)c4O[C@H]2C(=NOCc2ccccc2)CC[C@@]3(O)[C@H]1C5", "note": "[Example III, 6-Benzyloximino-17-methyl-4,5 α-epoxy-3, 14-dihydroxymorphinan]", "values": [
      {"measurement": "number of deaths out of six rats", "setting": "[2]; 8.85 μmole/kg", "value": 1},
      {"measurement": "number of deaths out of six rats", "setting": "[2]; 17.7 μmole/kg", "value": 3},
      {"measurement": "number of deaths out of six rats", "setting": "[2]; 26.6 μmole/kg", "value": 3},
      {"measurement": "Ki", "setting": "[3]; [8]", "value": "2.8 ± 1.6", "unit": "nM"},
      {"measurement": "Ki", "setting": "mu-type opioid receptor; [9]", "value": "1.58 ± 0.07", "unit": "nM"},
      {"measurement": "ED50", "setting": "tail flick response; [10]", "value": 0.64, "unit": "µmol/kg"},
      {"measurement": "dose producing approximately equal analgesia", "setting": "tail flick response; S.C.", "value": "~2.21", "unit": "µmol/kg"}
    ]},
    {"smiles": "CN1CC[C@]23c4c5ccc(O)c4O[C@H]2C(=NOc2ccccc2)CC[C@@]3(O)[C@H]1C5", "note": "[Example IV, 6-Phenyloximino-17-methyl-4,5 α-epoxy-3, 14-dihydroxymorphinan]", "values": [
      {"measurement": "number of deaths out of six rats", "setting": "[2]; 4.48 μmole/kg", "value": 1},
      {"measurement": "number of deaths out of six rats", "setting": "[2]; 8.95 μmole/kg", "value": 1},
      {"measurement": "number of deaths out of six rats", "setting": "[2]; 13.4 μmole/kg", "value": 2},
      {"measurement": "Ki", "setting": "[3]; [8]", "value": "0.91 ± 0.1", "unit": "nM"},
      {"measurement": "Ki", "setting": "mu-type opioid receptor; [9]", "value": "0.84 ± 0.09", "unit": "nM"},
      {"measurement": "ED50", "setting": "tail flick response; [10]", "value": 0.18, "unit": "µmol/kg"},
      {"measurement": "dose producing approximately equal analgesia", "setting": "tail flick response; S.C.", "value": "~1.12", "unit": "µmol/kg"}
    ]},
    {"smiles": "Oc1ccc2c3c1O[C@H]1C(=NOCCCc4ccccc4)CC[C@@]4(O)[C@@H](C2)N(CC2CC2)CC[C@]314", "note": "[Example XXIII]", "values": [
      {"measurement": "fold more potent to inhibit specific [3H]EKC", "setting": "[4]", "value": 100, "unit": "fold"},
      {"measurement": "Ki", "setting": "[3]; read-out: (Ki) nM, δ receptor (Rat Forebrain), Table 6, [^3 H] DADLE, mean of three experiments", "value": 0.44, "unit": "nM"},
      {"measurement": "Ki", "setting": "mu-type opioid receptor; read-out: (Ki) nM, μ receptor (Rat Forebrain), Table 6, [^3 H] DAGO, mean of three experiments", "value": 0.32, "unit": "nM"},
      {"measurement": "ED50", "setting": "writhing response; Mus musculus, Table 7, read-out: ED50, Acetic Acid Induced Writhing in the Mouse", "value": 0.02, "unit": "mg/kg"},
      {"measurement": "potency versus morphine to antagonize writhing response", "setting": "writhing response; mouse, in vivo, ip", "value": "more potent than morphine to antagonize the writhing response"},
      {"measurement": "kappa selectivity and agonist activity", "setting": "writhing response; writhing and tail flick", "value": "selective to kappa receptors and possess kappa agonist activity"},
      {"measurement": "ED50", "setting": "tail flick response; Table 7, read-out: ED50, Antagonism of the Tail-Flick Response in the Rat", "value": 1.84, "unit": "mg/kg"},
      {"measurement": "antagonism of tail-flick response to heat", "setting": "tail flick response; rat", "value": "effectively antagonized the tail-flick response to a heat stimulus in the rat"}
    ]},
    {"smiles": "[Cl-].[Li+]", "note": "[LiCl, lithium chloride, reference compound]", "values": [
      {"measurement": "conditioned taste aversion (milk intake, preference ratio)", "setting": "[5]", "value": "significant decreases in milk intake and in the preference ratio were evident only for LiCl"}
    ]},
    {"smiles": "COC(=O)CON=C1CC[C@@]2(O)[C@H]3Cc4ccc(OC)c5c4[C@@]2(CCN3CC2CC2)[C@H]1O5", "note": "[N-cyclopropylmethyl-nor-14-hydroxydihydrocodeinone-6-carboxymethyl methyl ester]", "values": [
      {"measurement": "suppression of symptoms in morphine dependent monkeys", "setting": "[6]", "value": "partial suppression of symptoms was obtained"}
    ]},
    {"smiles": "C=CCN1CC[C@]23c4c5ccc(O)c4O[C@H]2/C(=N/N=C2\\CC[C@@]4(O)[C@H]6Cc7ccc(O)c8c7[C@@]4(CCN6CC=C)[C@H]2O8)CC[C@@]3(O)[C@H]1C5", "note": "[naloxonazine]", "values": [
      {"measurement": "inhibition of overnight feeding", "setting": "[7]", "value": "inhibition of overnight feeding"}
    ]}
  ]
}
